Publication PMC7386655, “Spontaneous mutations that confer resistance to 2-deoxyglucose act through Hxk2 and Snf1 pathways to regulate gene expression and HXT endocytosis” (PLoS Genetics, 2020)

Target: T1, Hxk2 (Saccharomyces cerevisiae, UniProt P04807)
T1 construct: expressed from low-copy plasmid in hxk1Δ hxk2Δ glk1Δ yeast; whole cell extract; probably C-terminal 3xV5 tag
T1 sequence (P04807 2-486): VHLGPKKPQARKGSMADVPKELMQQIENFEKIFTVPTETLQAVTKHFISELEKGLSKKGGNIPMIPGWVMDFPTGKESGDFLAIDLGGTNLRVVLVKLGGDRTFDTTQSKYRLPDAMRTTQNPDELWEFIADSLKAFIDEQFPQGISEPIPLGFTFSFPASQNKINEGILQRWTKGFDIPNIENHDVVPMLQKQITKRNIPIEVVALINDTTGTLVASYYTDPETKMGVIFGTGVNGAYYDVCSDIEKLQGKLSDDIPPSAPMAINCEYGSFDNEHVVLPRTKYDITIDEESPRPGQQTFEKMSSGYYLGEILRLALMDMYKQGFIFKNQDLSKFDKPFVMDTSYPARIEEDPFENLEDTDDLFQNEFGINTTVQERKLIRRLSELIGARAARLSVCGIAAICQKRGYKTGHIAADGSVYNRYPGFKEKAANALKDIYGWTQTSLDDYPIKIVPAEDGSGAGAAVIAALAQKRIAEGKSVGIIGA
Assay: G6PDH-coupled NADPH absorbance at […] nm, double reciprocal plot
Format: biochemical
Conditions: read-out: Km Glucose; 1 mM ATP, 10 mM MgCl2, pH 7.4; whole cell extract

Km: 190 µM
SMILES: OC[C@H]1OC(O)[C@H](O)[C@@H](O)[C@@H]1O (stereo partly shown) [glucose]
